Six compounds from patent US20170119776A1, “CHIRAL 2,5-DISUBSTITUTED CYCLOPENTANECARBOXYLIC ACID DERIVATIVES AND USE THEREOF” (BAYER PHARMA AKTIENGESELLSCHAFT, priority 2014, published 2017) can be followed below.

One test has as its target T1, MMP-12 of the rat (Rattus norvegicus, UniProt Q63341).
T1 construct: MMP-12 of the rat (Uniprot NP_446415.1; construct L96-V277); made in house; host or cells: E. coli (BL21), pDEco7 vector
The experiment in a line: In vitro MMP-12 inhibition test of the rat. It counts as biochemical. From the text: (§1) The activity strength of the compounds according to the invention towards other MMPs (and therefore their selectivity) is likewise ascertained in in vitro inhibition tests. The MMP-mediated amidolytic cleavage of a suitable peptide substrate also leads here to a fluorescent light increase. The signal intensity of the fluorescent light is directly proportional to the enzyme activity. The active concentration of a test compound at which half of the enzyme is inhibited (50% signal intensity of the fluorescent light) is given as IC50 value.
MMP-12 of the rat (Uniprot NP_446415.1; construct L96-V277) is expressed with an additional N-terminal His-Tag and a consecutive TEV cleavage sequence by means of a pDEco7 vector in E. coli (BL21). The thus recombinantly expressed protein forms an intracellular insoluble protein compartment (so-called inclusion body). This is solubilized after separation and intensive washing under denaturing conditions. For this, the inclusion body pellet fraction from a 250 ml E. coli culture is taken up in a volume of 120 ml of buffer A (50 mM Tris pH 7.4, 100 mM NaCl, 0.03 mM ZnCl2, 10 mM CaCl2, 8 M urea). The soluble protein is renatured by in each case dialysing 60 ml of the sample several times at 4-8° C. against buffer B (50 mM Tris pH 7.4, 100 mM NaCl, 0.03 mM ZnCl2, 10 mM CaCl2). After the dialysis, the sample is centrifuged (25 000×g). The folded-back protein is obtained in the supernatant with a yield of 3.7 mg per 250 ml E. coli culture. The thus obtained protein is enzymatically active without further purification operations or protease-mediated cleavage processes.
1 μl of the test compound to be analysed (as a solution in DMSO, suitable concentrations e.g. 1 nM to 30 μM) is pipetted into 24 μl of MMP-12 protein (final concentration e.g. 1 nM) in reaction buffer (50 mM Tris/HCl pH 7.5, 10 mM CaCl2, 150 mM NaCl, 0.05% Brij®-35) in a white 384-hole microtiter plate (MTP). The enzymatic reaction is started by adding the intramolecularly quenched substrate Mca-Pro-Leu-Gly-Leu-Dpa(Dnp)-Ala-Arg-NH2 (final concentration e.g. 5 μM; R&D Systems, ES-001), such that a total test volume of 50 μl results. The progress of the MMP-12 reaction is measured by measuring the fluorescence intensity (excitation 320 nm, emission 410 nm) over a suitable period (e.g. over 120 min at a temperature of 32° C.).
(§2) Tables 3A and 3B below give the IC50 values from these tests for the inhibition of rodent MMPs for representative embodiment examples of the present invention and also for two structurally related comparison compounds from the prior art (as racemate and separated enantiomer)→(in part as average values from several independent individual determinations and rounded to two significant places). The IC50 values were determined for racemates and enantiomers from differently generated DMSO stock solutions. Whereas an automatically created DMSO stock solution from the internal substance logistics was used for racemates by means of a standard method, in the case of enantiomers, in each case a freshly produced, manually prepared DMSO stock solution was used for a more precise direct comparison of the enantiomers with one another.

For the next test, the target named is T2, MMP-7 of the mouse (Mus musculus, UniProt Q10738).
T2 construct: purchased R&D Systems 2967-MP
T2 sequence (Q10738 95-264): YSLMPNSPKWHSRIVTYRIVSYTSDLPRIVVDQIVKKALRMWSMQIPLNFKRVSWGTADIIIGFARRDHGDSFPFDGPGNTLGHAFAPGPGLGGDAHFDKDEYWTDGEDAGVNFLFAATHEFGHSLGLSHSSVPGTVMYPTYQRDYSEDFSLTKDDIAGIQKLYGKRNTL
As to the kind of experiment: In vitro MMP-7 inhibition test of the mouse. The format is biochemical.
Source text: as §1
Recombinant MMP-7 of the mouse (R&D Systems, 2967-MP) is chemically activated in accordance with the manufacturer's instructions using APMA. 1 μl of the test compound to be analysed (as a solution in DMSO, suitable concentrations e.g. 1 nM to 30 μM) is pipetted into 24 μl of activated enzyme (final concentration e.g. 0.5 nM) in reaction buffer (50 mM Tris/HCl pH 7.5, 10 mM CaCl2, 150 mM NaCl, 0.05% Brij®-35) in a white 384-hole microtiter plate (MTP). The enzymatic reaction is started by adding the intramolecularly quenched substrate Mca-Lys-Pro-Leu-Gly-Leu-Dpa(Dnp)-Ala-Arg-NH2 (final concentration e.g. 5 μM; R&D Systems, ES-010), such that a total test volume of 50 μl results. The progress of the MMP-7 reaction is measured by measuring the fluorescence intensity (excitation 320 nm, emission 410 nm) over a suitable period (e.g. over 120 min at a temperature of 32° C.).
as §2

Each structure is given as a SMILES string.

T1 sequence (Q63341 96-277): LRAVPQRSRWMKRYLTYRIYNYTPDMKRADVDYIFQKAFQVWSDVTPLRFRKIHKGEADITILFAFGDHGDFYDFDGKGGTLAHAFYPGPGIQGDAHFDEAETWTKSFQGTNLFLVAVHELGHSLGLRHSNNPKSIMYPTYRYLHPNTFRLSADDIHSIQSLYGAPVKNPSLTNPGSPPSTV

What is called IC50 is the concentration that gives 50% inhibition. Take `O=C(O)[C@H]1[C@H](Cn2nnc3ccccc3c2=O)CC[C@@H]1C(=O)c1ccc(OCc2ccccc2)cc1` [Example 2, (+)-(1S,2S,5R)-2-[4-(Benzyloxy)benzoyl]-5-[(4-oxo-1,2,3-benzotriazin-3(4H)-yl)methyl]cyclopentanecarboxylic acid]: the half-inhibitory concentration (IC50) against MMP-12 of the rat is less than 0.61 nM; on MMP-7 of the mouse it was 22 nM.
With `O=C(O)[C@@H]1[C@@H](Cn2nnc3ccccc3c2=O)CC[C@H]1C(=O)c1ccc(-c2ccc(Cl)cc2)cc1` (single isomer, unassigned; enantiomer 2) [Comparative Example A-3, (1RS,2RS,5SR)-2-[(4′-Chlorobiphenyl-4-yl)carbonyl]-5-[(4-oxo-1,2,3-benzotriazin-3(4H)-yl)methyl]cyclopentanecarboxylic acid (enantiomer 2)], the IC50 on MMP-12 of the rat was less than 0.61 nM; at MMP-7 of the mouse it was 6.2 nM.
As to `CCCCCOc1ccc(C(=O)CC(CCn2nnc3ccccc3c2=O)C(=O)O)cc1` (single isomer, unassigned; enantiomer 1) [Comparative Example B-2, (+)-4-Oxo-2-[2-(4-oxo-1,2,3-benzotriazin-3(4H)-yl)ethyl]-4-[4-(pentyloxy)phenyl]butanoic acid (enantiomer 1)], the IC50 stood at 24.5 nM against MMP-12 of the rat and 525 nM against MMP-7 of the mouse.
In the case of `CCCCCOc1ccc(C(=O)CC(CCn2nnc3ccccc3c2=O)C(=O)O)cc1` (racemic) [Comparative Example B-1, (+/−)-4-Oxo-2-[2-(4-oxo-1,2,3-benzotriazin-3(4H)-yl)ethyl]-4-[4-(pentyloxy)phenyl]butanoic acid (racemate)], the IC50 on MMP-12 of the rat came out at 29.3 nM; against MMP-7 of the mouse, 1400 nM.
For `O=C(O)[C@H]1[C@H](Cn2nnc3ccccc3c2=O)CC[C@@H]1C(=O)c1ccc(-c2ccc(Cl)cc2)cc1` (racemic) [Comparative Example A-1, (1RS,2RS,5SR)-2-[(4′-chlorobiphenyl-4-yl)carbonyl]-5-[(4-oxo-1,2,3-benzotriazin-3(4H)-yl)methyl]cyclopentanecarboxylic acid (racemate)], in that order: less than 0.61 nM and 15 nM.
Take `O=C(O)[C@H]1[C@H](Cn2nnc3ccccc3c2=O)CC[C@@H]1C(=O)c1ccc(OCc2ccccc2)cc1` (racemic) [Example 1, (+/−)-(1RS,2RS,5SR)-2-[4-(Benzyloxy)benzoyl]-5-[(4-oxo-1,2,3-benzotriazin-3(4H)-yl)methyl]cyclopentanecarboxylic acid (racemate)]: the values for the IC50 against MMP-12 of the rat and against MMP-7 of the mouse were less than 1 nM and 46 nM, respectively.
